Patent publication US20050054625A1, “Method for treating diseases using HSP90-inhibiting agents in combination with nuclear export inhibitors” (Kosan Biosciences, Inc., priority 2003, published 2005)

System: DLD-1 cells (human colorectal cancer cells)
Assay: Cell viability (MTS) drug combination assay, combination index
Assay type: cell-based
Details: combination with 17-AAG, CI<1 synergism
Protocol: Human colon adenocarcinoma cell line, DLD-1, and human breast adenocarcinoma cell line, SKBr-3, were obtained from American Type Culture Collection (manassas, VA). DLD-1 cells were maintained in RPMI 1640 medium supplemented with 10% fetal bovine serum, and SKBr-3 cells were cultured in McCoy's 5a medium supplemented with 10% fetal bovine serum. 17-DMAG and 17-AAG were obtained using published procedures. Other cytotoxic agents were purchased commercially from suppliers such as Sigrna Chemical Co. (St. Louis, Mo.) and Sequoia Research Products (Oxford, UK).
Cells were seeded in duplicate in 96-well microtiter plates at a density of 5,000 cells per well and allowed to attach overnight. […] Cell viability was determined using the MTS assay (Promega). […] Cell viability was determined by the MTS assay.
Synergism, additivity or antagonism was determined by median effect analysis using the combination index (CI) calculated using Calcusyn (Biosoft, Cambridge, UK). The combination index is defined as follows: CI=[D]1/[Dx]1+[D]2/[Dx]2 The quantities [D]1 and [D]2 represent the concentrations of the first and second drug, respectively, that in combination provide a response of x % in the assay. The quantities [Dx]1 and [Dx]2 represent the concentrations of the first and second drug, respectively, that when used alone provide a response of x % in the assay. […]

Substance: callystatin
- CI value, 17-AAG Pre-Administration (17-AAG given 24 hours before the nuclear export inhibitor (48 hours)): 0.95 ± 0.04
- CI value, 17-AAG Post-Administration (nuclear export inhibitor alone 24 hours, then 17-AAG for 48 hours): 0.81 ± 0.06
